Assay results from patent publication US6127380A, “4-aminoalkoxy-1H-benzoimidazoles” (American Home Products Corporation, priority 1998, dated 2000).
Like-named read-outs stand apart in the source and are kept apart here.

How the values were obtained:
[1] = molecular target: T1, dopamine autoreceptor (D2) (Rattus norvegicus, UniProt P61169); test: Affinity for the dopamine autoreceptor, 3H-quinpirole binding in homogenized rat striatal brain tissue (D2 Quin.)
T1 construct: homogenized rat striatal brain tissue; from tissue; host or cells: rat striatum, homogenate
T1 sequence (P61169 whole entry): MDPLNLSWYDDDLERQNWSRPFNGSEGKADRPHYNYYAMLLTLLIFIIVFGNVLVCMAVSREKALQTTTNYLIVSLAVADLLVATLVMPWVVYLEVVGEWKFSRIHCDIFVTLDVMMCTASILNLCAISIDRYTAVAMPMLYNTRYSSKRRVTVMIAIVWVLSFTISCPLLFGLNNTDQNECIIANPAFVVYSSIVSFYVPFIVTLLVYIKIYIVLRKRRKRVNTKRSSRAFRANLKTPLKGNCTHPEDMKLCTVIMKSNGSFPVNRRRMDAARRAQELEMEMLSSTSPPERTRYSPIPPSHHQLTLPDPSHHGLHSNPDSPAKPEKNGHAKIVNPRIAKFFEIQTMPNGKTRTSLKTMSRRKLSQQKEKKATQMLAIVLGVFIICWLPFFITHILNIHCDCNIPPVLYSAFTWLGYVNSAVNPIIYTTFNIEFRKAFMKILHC
Procedure: Affinity for the dopamine autoreceptor was established by a modification of the standard experimental test procedure of Seemen and Schaus, European Journal of Pharmacology 203: 105-109, 1991, wherein homogenized rat striatal brain tissue is incubated with ^3 H-quinpirole (Quin.) and various concentrations of test compound, filtered and washed and counted in a Betaplate scintillation counter.

dopamine D-2 receptor = molecular target: T2, dopamine D-2 receptor (Rattus norvegicus, UniProt P61169); test: Affinity for the dopamine D-2 receptor, 3H-spiroperidol binding in homogenized limbic brain tissue (D2 Spiper); conditions: for Ratio: IC50 D2 Spiper / IC50 D2 Quin. (LowAg/HighAg, predicts intrinsic activity)
T2 construct: from tissue; host or cells: limbic brain tissue, homogenate
T2 sequence (P61169 whole entry): as above
Procedure: High affinity for the dopamine D-2 receptor was established by the standard experimental test procedure of Fields, et al., Brain Res., 136, 578 (1977) and Yamamura et al., eds., Neurotransmitter Receptor Binding, Raven Press, N.Y. (1978) wherein homogenized limbic brain tissue is incubated with ^3 H-spiroperidol (Spiper.) and various concentrations of test compound, filtered and washed and shaken with Hydrofluor scintillation cocktail (National Diagnostics) and counted in a Packard 460 CD scintillation counter.

[2] = 3H-quinpirole, homogenized rat striatal brain tissue, read-out: IC50 (nM) D2 Quin.
[3] = 3H-spiroperidol, homogenized limbic brain tissue, read-out: IC50 (nM) D2 Spiper

With `c1ccc(CNCCOc2cccc3nc[nH]c23)cc1` [Example 1, [2-(1H-Benzoimidazol-4-yloxy)-ethyl]-benzyl-amine] the IC50 [1, 2] was 26.7 nM.

For `Cc1nc2c(OCCNCc3ccccc3)cccc2[nH]1` [Example 2, Benzyl-[2-(2-methyl-1H-benzoimidazol-4-yloxy)-ethyl]-amine], the IC50 (dopamine D-2 receptor; [3]) was 339 nM, the Ratio (dopamine D-2 receptor) was 38.3 and the IC50 [1, 2] was 8.85 nM.

Compound `FC(F)(F)c1nc2c(OCCNCc3ccccc3)cccc2[nH]1` [Example 3, Benzyl-[2-(2-trifluoromethyl-1H-benzoimidazol-4-yloxy)-ethyl]-amine] has an IC50 (dopamine D-2 receptor; [3]) of 23.7 nM, a Ratio (dopamine D-2 receptor) of 65.8 and an IC50 [1, 2] of 0.36 nM.

`Cc1ccc(CNCCOc2cccc3[nH]c(C(F)(F)F)nc23)cc1` [Example 4, (4-Methyl-benzyl)-[2-(2-trifluoromethyl-1H-benzoimidazol-4-yloxy)-ethyl]-amine] showed an IC50 (dopamine D-2 receptor; [3]) of 29.9 nM, a Ratio (dopamine D-2 receptor) of 40.4 and an IC50 [1, 2] of 0.74 nM.

Compound `Cc1ccc(CNCCOc2cccc3[nH]c(Cc4ccccc4)nc23)cc1` [Example 5, [2-(2-Benzyl-1H-benzoimidazol-4-yloxy)-ethyl]-(4-methyl-benzyl)-amine] has an IC50 (dopamine D-2 receptor; [3]) of 2160 nM, a Ratio (dopamine D-2 receptor) of 39.4 and an IC50 [1, 2] of 54.8 nM.

`Cc1ccc(CNCCOc2cccc3[nH]c(C(F)(F)C(F)(F)F)nc23)cc1` [Example 6, (4-Methyl-benzyl)-{2-[2-(1,1,2,2,2-pentafluoro-ethyl)-1H-benzoimidazol-4-yloxy]-ethyl}-amine] gave an IC50 (dopamine D-2 receptor; [3]) of 66.5 nM, a Ratio (dopamine D-2 receptor) of 46.2 and an IC50 [1, 2] of 1.44 nM.

For `FC(F)(F)c1nc2c(OCCNCc3cccs3)cccc2[nH]1` [Example 7, Thiophen-2-ylmethyl-[2-(2-trifluoromethyl-1H-benzoimidazol-4-yloxy)-ethyl]-amine], the IC50 (dopamine D-2 receptor; [3]) was 37.4 nM, the Ratio (dopamine D-2 receptor) was 36.3 and the IC50 [1, 2] was 1.03 nM.

Compound `FC(F)(F)c1nc2c(OCCCNCc3ccccc3)cccc2[nH]1` [Example 8, Benzyl-[3-(2-trifluoromethyl-1H-benzoimidazol-4-yloxy)-propyl]-amine] has an IC50 (dopamine D-2 receptor; [3]) of 1460 nM, a Ratio (dopamine D-2 receptor) of 16.8 and an IC50 [1, 2] of 86.8 nM.

In the case of `FC(F)(F)C(F)(F)c1nc2c(OCCNCc3ccccc3)cccc2[nH]1` [Example 9, Benzyl-{2-[2-(1,1,2,2,2-pentafluoro-ethyl)-1H-benzoimidazol-4-yloxy]-ethyl}-amine], the IC50 (dopamine D-2 receptor; [3]) is reported as 41.9 nM, the Ratio (dopamine D-2 receptor) is reported as 29.7 and the IC50 [1, 2] is reported as 1.41 nM.

`FC(F)(F)c1nc2c(OCCNCc3cccc4ccccc34)cccc2[nH]1` [Example 10, Naphthalen-1-ylmethyl-[2-(2-trifluoromethyl-1H-benzoimidazol-4-yloxy]-ethyl]-amine] was tested, and the IC50 (dopamine D-2 receptor; [3]) was 81.5 nM, the Ratio (dopamine D-2 receptor) was 94.8 and the IC50 [1, 2] was 0.86 nM.

Compound `c1csc(CNCCOc2cccc3[nH]cnc23)c1` [Example 11, Thiophen-2-ylmethyl-[2-(1H-benzoimidazol-4-yloxy)-ethyl]-amine] has an IC50 [1, 2] of 52.8 nM.

`Cc1ccc(CNCCOc2cccc3[nH]c(C(F)(F)C(F)(F)C(F)(F)F)nc23)cc1` [Example 12, (4-Methyl-benzyl)-{2-[2-(1,1,2,2,3,3,3-heptafluoro-propyl)-1H-benzoimidazol-4-yloxy]-ethyl}-amine] showed an IC50 (dopamine D-2 receptor) of 118 nM, a Ratio (dopamine D-2 receptor) of 23.0 and an IC50 [1] of 5.12 nM.

`FC(F)(F)c1nc2c(OCCN3CCc4ccccc4C3)cccc2[nH]1` [Example 13] was tested, and the IC50 (dopamine D-2 receptor; [3]) was 314 nM, the Ratio (dopamine D-2 receptor) was 39.4 and the IC50 [1, 2] was 8 nM.

In the case of `FC(F)(F)c1nc2c(OCCNCc3ccccc3)cc(Cl)cc2[nH]1` [Example 14, Benzyl-[2-(6-chloro-2-trifluoromethyl-1H-benzoimidazol-4-yloxy)-ethyl]-amine], the IC50 (dopamine D-2 receptor; [3]) is reported as 151 nM, the Ratio (dopamine D-2 receptor) is reported as 106 and the IC50 [1, 2] is reported as 1.42 nM.

`FC(F)(F)c1nc2c(OCCNCc3ccc(Cl)cc3)cc(Cl)cc2[nH]1` [Example 15, 4-Chloro-benzyl-[2-(6-chloro-2-trifluoromethyl-1H-benzoimidazol-4-yloxy)-ethyl]-amine] showed an IC50 (dopamine D-2 receptor; [3]) of 395 nM, a Ratio (dopamine D-2 receptor) of 50.8 and an IC50 [1, 2] of 7.77 nM.

`Fc1ccc(CNCCOc2cccc3[nH]c(C(F)(F)F)nc23)cc1` [Example 16, (4-Fluoro-benzyl)-2[2-(2-trifluoromethyl-1H-benzoimidazol-4-yloxy)-ethyl]-amine] showed an IC50 (dopamine D-2 receptor; [3]) of 49 nM, a Ratio (dopamine D-2 receptor) of 66.2 and an IC50 [1, 2] of 0.74 nM.

`FC(F)(F)c1ccc(CNCCOc2cccc3[nH]c(C(F)(F)F)nc23)cc1` [Example 17, [2-(2-Trifluoromethyl-1H-benzoimidazol-4-yloxy)-ethyl]-(4-trifluoromethyl-benzyl)-amine] showed an IC50 (dopamine D-2 receptor; [3]) of 87 nM, a Ratio (dopamine D-2 receptor) of 75.0 and an IC50 [1, 2] of 1.16 nM.

In the case of `FC(F)(F)c1nc2c(OCCNCCCc3ccccc3)cccc2[nH]1` [Example 18, (3-Phenyl-propyl)-[2-(2-trifluoromethyl-1H-benzoimidazol-4-yloxy)-ethyl]-amine], the IC50 [1, 2] is reported as 0.56 nM.
